IC50 data for 23 compounds are collected here from patent US11999732B2, “P2X3 receptor antagonists” (RECORDATI INDUSTRIA CHIMICA E FARMACEUTICA SPA, priority 2018, dated 2024).

The first test concerns the target T1, human P2X3 receptor (Homo sapiens, UniProt P56373).
T1 construct: expressed in transfected cells; host or cells: CHO-K1
T1 sequence (P56373 1-397): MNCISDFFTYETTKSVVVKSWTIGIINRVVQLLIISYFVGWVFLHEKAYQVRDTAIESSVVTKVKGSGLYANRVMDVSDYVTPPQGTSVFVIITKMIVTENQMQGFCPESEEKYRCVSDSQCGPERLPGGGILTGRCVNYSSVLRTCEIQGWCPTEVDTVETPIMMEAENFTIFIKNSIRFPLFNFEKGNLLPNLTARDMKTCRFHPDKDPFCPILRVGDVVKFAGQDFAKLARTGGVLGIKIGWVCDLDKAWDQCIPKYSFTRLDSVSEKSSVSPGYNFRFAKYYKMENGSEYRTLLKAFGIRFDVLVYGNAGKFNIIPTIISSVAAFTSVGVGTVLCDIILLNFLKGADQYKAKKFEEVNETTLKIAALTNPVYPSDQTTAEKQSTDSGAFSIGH
Nature of the test: Calcium luminescence (photoprotein) assay in CHO-K1 cells co-expressing human P2X3 receptor, α,β-Met-ATP stimulation, FLEXSTATION readout. It is filed as cell-based. Particulars: Table 6; human P2X3 receptor antagonist activity, CHO-K1 cells, α,β-Met-ATP; read-out: h-P2X3 IC50. The procedure:
The assay for the human purinergic P2X3 receptor has been adapted to the internal screening instrumentation using the FLEXSTATION as reader and a photoprotein as luminescent readout. The assay consists of CHO-K1 cells recombinantly co-expressing the human P2rx3 receptor and a Ca^2+ sensitive photoprotein. Cells are maintained in DMEM F-12 (1:1) mixture (LONZA cat. no BE04-687F/U1) supplemented with 9 mL of 100 mM Sodium Pyruvate (LONZA cat. no BE13-115E), 29 mL of 7.5% Sodium Bicarbonate (LONZA cat. no: BE17-613E), 5.5 mL of 1 M Hepes (LONZA cat. no BE17-737E), 5 mL of 100× Penicillin/Streptomycin (LONZA cat. no DE17-602E) and 50 mL of Fetal Bovine Serum (Sigma cat. no F7524), 1 mg/mL G418 (Sigma cat. no G8168) and 5 µg/ml puromycin (Sigma cat. no P9620). Standard propagation conditions consist of seeding in a P75 flask twice a week, recovering about 20×10^6 cells, corresponding to about 80% confluency. Cells were seeded into black-walled clear bottom 96 well plates at a density of 40000 cells/well in a Tyrode's buffer (Standard Tyrode's buffer: in house solution, 130 mM NaCl, 5 mM KCl, 2 mM CaCl2, 5 mM NaHCO3, 1 mM MgCl2, 20 mM HEPES, pH 7.4). After 24 h the culture medium was replaced with 200 μL/well of coelenterazine in Tyrode's buffer (Coelenterazine: from BIOSYNTH (cat. no C-7001). 10 mM stock solution was prepared in DMSO and glutathione and stored at −20° C.). The plates were incubated for 4 hours at 37° C., and injected with 10 μL/well of test compounds at 25× concentration in Tyrode's buffer. After 4 minutes a second injection of 50 μL/well of 5× α,β-Met-ATP in Tyrode's buffer (α,β-Met-ATP: from Tocris (cat. no 3209), was dissolved at 100 mM in water and stored in aliquots at −20° C.) was performed and the signal of the emitted luminescence was recorded by FLEXSTATION III (Molecular Devices).
The inhibition curves of the tested compounds at cloned P2X3 receptor were determined by nonlinear regression analysis using software Prism 4.0 (Graphpad, San Diego, Calif.). The IC50 values and pseudo-Hill slope coefficients were estimated by the program.
In general, IC50 refers to the concentration that inhibits the measured activity by half. Turning to `CC(C)CCC1CN=C2c3ncc(N4CCOCC4)cc3N(Cc3ccc(Cl)cc3)C(=O)N21` (centres unmarked) [Example 63, 6-(4-chlorobenzyl)-3-(3-methylbutyl)-8-(morpholin-4-yl)-2,6-dihydroimidazo[1,2-c]pyrido[2,3-e]pyrimidin-5(3H)-one], the IC50 came to 299 nM.
Same read-out and setting: for `COc1ccc(CN2C(=O)N3CC(C(C)C)N=C3c3ncc(N4CCOCC4)cc32)cc1` (centres unmarked) [Example 18, 6-(4-methoxybenzyl)-8-(morpholin-4-yl)-2-(propan-2-yl)-2,6-dihydroimidazo[1,2-c]pyrido[2,3-e]pyrimidin-5(3H)-one] the value was 301 nM.
Turning to `O=C(C1CN2C(=O)N(Cc3ccc(Cl)cc3)c3cc(N4CCOCC4)cnc3C2=N1)N1CCOCC1` (centres unmarked) [Example 54, 6-(4-chlorobenzyl)-8-(morpholin-4-yl)-2-(morpholin-4-ylcarbonyl)-2,6-dihydroimidazo[1,2-c]pyrido[2,3-e]pyrimidin-5(3H)-one], the IC50 stood at 1700 nM.
Consider `CCC1CN2C(=O)N(Cc3ccc(OC)cc3)c3cc(N4CC(COC)C4)cnc3C2=N1` (centres unmarked) [Example 39, 2-ethyl-6-(4-methoxybenzyl)-8-[3-(methoxymethyl)azetidin-1-yl]-2,6-dihydroimidazo[1,2-c]pyrido[2,3-e]pyrimidin-5(3H)-one], for which the IC50 is 5140 nM.
The same measure, in the same setting: for `COCCC1CN=C2c3ncc(N4CCOCC4)cc3N(Cc3ccc(OC)cc3)C(=O)N21` (centres unmarked) [Example 66, 6-(4-methoxybenzyl)-3-(2-methoxyethyl)-8-(morpholin-4-yl)-2,6-dihydroimidazo[1,2-c]pyrido[2,3-e]pyrimidin-5(3H)-one] the value was 2280 nM; for `COc1ccc(CN2C(=O)N3CC(CC(C)C)N=C3c3ncc(N4CCOCC4)cc32)cc1` (centres unmarked) [Example 37, 6-(4-methoxybenzyl)-2-(2-methylpropyl)-8-(morpholin-4-yl)-2,6-dihydroimidazo[1,2-c]pyrido[2,3-e]pyrimidin-5(3H)-one], 678 nM; for `COc1cc(CN2C(=O)N3C(=NCC3C)c3ncc(N4CCOCC4)cc32)cc(OC)c1` (centres unmarked) [Example 2], 1190 nM.
On the same count and under the same terms, in the case of `COc1ccc(CN2C(=O)N3CC(CC(C)(C)C)N=C3c3ncc(N4CCOCC4)cc32)cc1` (centres unmarked) [Example 34, 2-(2,2-dimethylpropyl)-6-(4-methoxybenzyl)-8-(morpholin-4-y1)-2,6-dihydroimidazo[1,2-c]pyrido[2,3-e]pyrimidin-5(3H)-one] it was 408 nM.

The same test, now with this note: Table 7; human P2X3 receptor antagonist activity, CHO-K1 cells, α,β-Met-ATP; read-out: h-P2X3 IC50.
Consider `COCC1CN(c2cnc3c(c2)n(Cc2ccc(OC)cc2)c(=O)n2c(C)c(C(C)C)nc32)C1` [Example 92, 6-(4-methoxybenzyl)-8-[3-(methoxymethyl)azetidin-1-y1]-3-methyl-2-(propan-2-yl)imidazo[1,2-c]pyrido[2,3-e]pyrimidin-5(6H)-one], for which the 50% inhibitory concentration (IC50) amounted to 802 nM.
Take `Cc1c(C(C)C)nc2c3ncc(N4CC5(COC5)C4)cc3n(Cc3ccc(Cl)cc3)c(=O)n12` [Example 91, 6-(4-chlorobenzyl)-3-methyl-8-(2-oxa-6-azaspiro[3.3]heptan-6-yl)-2-(propan-2-yl)imidazo[1,2-c]pyrido[2,3-e]pyrimidin-5(6H)-one]: the IC50 came out at 507 nM.
Still for that read-out and setting: in the case of `CCn1ccc(-c2nnc3c4ncc(N5CCOCC5)cc4n(Cc4ccc(Cl)cc4)c(=O)n23)n1` [Example 109, 6-(4-chlorobenzyl)-3-(1-ethyl-1h-pyrazol-3-yl)-8-(morpholin-4-yl)pyrido[2,3-e][1,2,4]triazolo[4,3-c]pyrimidin-5(6H)-one] it was 203 nM; in that of `COc1cc(Cn2c(=O)n3c(C)c(C)nc3c3ncc(N4CCOCC4)cc32)cc(OC)c1` [Example 82, 6-(3,5-dimethoxybenzyl)-2,3-dimethyl-8-(morpholin-4-yl)imidazo[1,2-c]pyrido[2,3-e]pyrimidin-5(6H)-one], 332 nM; in that of `CCc1nc2c3ncc(NCC4COC4)cc3n(Cc3cc(OC)cc(OC)c3)c(=O)n2c1C` [Example 76, 6-(3,5-dimethoxybenzyl)-2-ethyl-3-methyl-8-{[(oxetan-3-yl)methyl]amino}imidazo[1,2-c]pyrido[2,3-e]pyrimidin-5(6H)-one], 381 nM.
The same measure, in the same setting: in the case of `COc1ccc(Cn2c(=O)n3c(C)c(C(C)C)nc3c3ncc(N4CC5(COC5)C4)cc32)cc1` [Example 93, 6-(4-methoxybenzyl)-3-methyl-8-(2-oxa-6-azaspiro[3.3]heptan-6-yl)-2-(propan-2-yl)imidazo[1,2-c]pyrido[2,3-e]pyrimidin-5(6H)-one] it was 1010 nM; in that of `CC(C)c1nnc2c3ncc(N4CCOCC4)cc3n(Cc3ccc(Cl)cc3)c(=O)n12` [Example 99, 6-(4-chlorobenzyl)-8-(morpholin-4-yl)-3-(propan-2-yl)pyrido[2,3-e][1,2,4]triazolo[4,3-c]pyrimidin-5(6H)-one], 121 nM; in that of `COc1cc(Cn2c(=O)n3c(C)c(C(C)C)nc3c3ncc(N4CCC(OC)CC4)cc32)cc(OC)c1` [Example 87, 6-(3,5-dimethoxybenzyl)-8-(4-methoxypiperidin-1-yl)-3-methyl-2-(propan-2-yl)imidazo[1,2-c]pyrido[2,3-e]pyrimidin-5(6H)-one], 444 nM.
Turning to `COc1cc(Cn2c(=O)n3cc(CC(C)C)nc3c3ncc(N4CCN(C(=O)CO)CC4)cc32)cc(OC)c1` [Example 80, 6-(3,5-dimethoxybenzyl)-8-[4-(hydroxyacetyl)piperazin-1-y1]-2-(2-methylpropyl)imidazo[1,2-c]pyrido[2,3-e]pyrimidin-5(6H)-one], the IC50 amounted to 1530 nM.

The same test, now with this note: Table 8; human P2X3 receptor antagonist activity, CHO-K1 cells, α,β-Met-ATP; read-out: h-P2X3 IC50.
For the compound `COCC1CN(c2cnc3c(c2)c(Cc2cc(OC)cc(OC)c2)nn2c(CC(C)C)nnc32)C1` [Example 121, 6-(3,5-dimethoxybenzyl)-8-[3-(methoxymethyl)azetidin-1-yl]-3-(2-methylpropyl)pyrido[2,3-d][1,2,4]triazolo[4,3-b]pyridazine], the IC50 is 1150 nM.
For the compound `Cc1ccc(Cc2nn3c(CC4CCCCC4)nnc3c3ncccc23)cc1` [Example 136, 3-(cyclohexylmethyl)-6-(4-methylbenzyl)pyrido[2,3-d][1,2,4]triazolo[4,3-b]pyridazine], the IC50 was 1790 nM.
Same read-out and setting: for `Clc1ccc(Cc2nn3c(CC4CCOCC4)nnc3c3ncc(N4CCOCC4)cc23)cc1` [Example 126, 6-(4-chlorobenzyl)-8-(morpholin-4-yl)-3-(tetrahydro-2H-pyran-4-ylmethyl)pyrido[2,3-d][1,2,4]triazolo[4,3-b]pyridazine] the value was 20.6 nM.

The same test, now with this note: Table 9; human P2X3 receptor antagonist activity, CHO-K1 cells, α,β-Met-ATP; read-out: h-P2X3 IC50.
On to `O=c1n(Cc2ccc(Cl)cc2)c2cc(N3CCOCC3)cnc2c2nnc(CC3CCOCC3)n12` [Example 186, 6-(4-chlorobenzyl)-8-(morpholin-4-yl)-3-(tetrahydro-2H-pyran-4-ylmethyl)pyrido[2,3-e][1,2,4]triazolo[4,3-c]pyrimidin-5(6H)-one], for which the IC50 came out at 289 nM.
On the same count and under the same terms, in the case of `CC(C)(C)c1nnc2c3ncc(N4CCOCC4)cc3n(Cc3ccc(Cl)cn3)c(=O)n12` [Example 173, 3-tert-butyl-6-[(5-chloropyridin-2-yl)methyl]-8-(morpholin-4-yl)pyrido[2,3-e][1,2,4]triazolo[4,3-c]pyrimidin-5(6H)-one] it was 2.59 nM; in that of `COc1ccc(Cn2c(=O)n3c(C(C)(C)C)nnc3c3ncc(N)cc32)cc1` [Example 176, 8-amino-3-tert-butyl-6-(4-methoxybenzyl)pyrido[2,3-e][1,2,4]triazolo[4,3-c]pyrimidin-5(6H)-one], 2570 nM.
